Test results taken from PMC10327353 (Breast Cancer Research : BCR, 2023).

Experiments:
[1] = Phase 1 study: CSF penetration (Kp,uu,CSF); type: in vivo, human; conditions: for Kp uu: human, oral
Method: Blood samples for PK analyses of DZD1516 and DZ2678 were collected on C0D1. Samples were obtained at pre-dose and at 0.5, 1, 1.5, 2, 2.5, 3, 4, 6, 8, 10, 24, 48, and 72 h after the dose, while for C1D15, samples were obtained at pre-dose and 0.5, 1, 1.5, 2, 2.5, 3, 4, 6, 8, and 10 h after the dose. CSF samples for PK analyses of DZD1516 and its metabolite DZ2678 were collected from patients with BM (C1D15) and LM (C1D15 and C3D1) at steady state (Additional file 1). Plasma and CSF samples were analyzed by LabCorp Madison laboratory (Madison, WI, USA) and LabCorp Shanghai laboratory (Shanghai, China) using a validated LC/MS/MS bioanalytical method to determine DZD1516 and DZ2678 concentrations. Non-compartmental PK analysis was performed using Phoenix WinNonlin (Certara USA Inc., version 8.3.3.33).

[2] = DMPK modeling prediction of human half-life
BT474C1 cells = experiment: Cell proliferation assay (CellTiter-Glo), BT474C1; type: cell-based, human; conditions: Homo sapiens; BT474C1, 72 hrs
Method: BT474C1-Luci Mono1 cells were seeded in 384-well plates at 1500 cells/well in DMEM medium containing 10% FBS and 1 mM Oxaloacetic acid (OAA). A431 cells were seeded in 384-well plates at 1,000 cells/well in DMEM medium containing 10% FBS. After overnight incubation, cells were treated with compounds at various concentrations for 3 days. Then cell viability was measured using a CellTiter-Glo Luminescent Cell Viability Assay from Promega Corp. according to the manufacturer's instructions.

HER2 = HER2 (Homo sapiens, UniProt P04626); experiment: pHER2 MSD assay in BT474C1 cells; type: cell-based; design: endogenous in cells; host or cells: BT474C1-Luci Mono1 (BT474 transfected with luciferase only); conditions: BT474C1, 4 hrs treatment
Method: A431 and BT474C1-Luci Mono1 cells were seeded in 96-well plates at 20,000 cells/well in DMEM medium containing 1% FBS. After overnight incubation, all cells were treated with compounds at a series of concentrations for 4 hrs. For A431 cell line, an extra stimulation with recombinant human EGF (100 ng/ml for 10 minutes) is applied to activate wild-type EGFR following compound treatment. pEGFR^Y1068 and total EGFR levels were measured by an electro chemiluminescent method (MULTI-SPOT®96 4-Spot HB Prototype EGFR Triplex […]: pEGFR (Y1068), Total EGFR; MESO SCALE DISCOVERY, Cat# N45ZB-1) with MSD SECTOR® Imager, which outputs the ratio of pEGFR/total EGFR for each well. pHER2^Y1248 and total HER2 levels were measured similarly using pHER2 (Y1248) Assay Whole Cell Lysate Kit (MESO SCALE DISCOVERY, Cat# K151CLD-3). The percentage of inhibition was calculated as: % Inhibition = 100 x [1 - (ratio of the sample well - ratio of Min ctrl well)/ (ratio of Max ctrl well - ratio of Min ctrl well)].

[3] = In vivo CNS-PK study in rat; conditions: female, Wistar Han, brain and CSF (relative to unbound plasma/blood), single PO dose of DZD1516 30 mg/kg
Method: The ability of DZD1516 and DZ2678 to cross the BBB in female Wistar Han rat and female Cynomolgus monkey was studied by assessing the free brain-to-plasma ratio (Kp,uu,brain) and CSF-to-free plasma ratio (Kp,uu,CSF). Total brain-to-blood ratio (Kp,brain) and CSF-to-blood ratio (Kp,CSF) were measured from six time points after oral administration. Free fractions of DZD1516 and DZ2678 in the biological matrix were determined by in vitro plasma and brain binding assay.
Kp,brain= AUCbrain/AUCblood. Kp,CSF was the average of the CSF-to-blood ratios at the evaluated time points. Kp,uu,brain= Kp,brain× fu,brain/fu,blood; Kpuu,CSF= Kp,CSF/fu,blood.
In total, twenty-one female Wistar Han rats were administered with a single PO dose of DZD1516 at 30 mg/kg. The PO dosing formulation was a suspension in 0.5% HPMC E5 in water (w/v). Plasma, brain, and CSF samples were collected at 0.5, 1, 2, 4, 8, 24, and 30 hrs post-dose. The concentrations of DZD1516 and metabolite DZ2678 in plasma, brain, and CSF samples from the rats, as well as in plasma and CSF samples from the monkeys, were determined by the validated LC-MS/MS method.

[4] = tested on: BT474C1-Luci Mono1 SC xenograft; experiment: SC (subcutaneous) BT474C1-Luci Mono1 xenograft model; type: in vivo, nude mice
Method: Tumor cell suspension at 5 × 10^6 were injected subcutaneously in a total volume of 0.2 ml (1:1 with ECM Gel) into each mouse. 17β-ESTRADIOL (90-day release, 0.36 mg/pellet) were implanted 24 hrs before cells were injected subcutaneously. Tumor nodules were measured in two dimensions with caliper and the tumor volume was calculated using the following formula: tumor volume = (length × width^2) × 0.5. Tumor-bearing mice were randomized into different treatment groups when the mean tumor volume reached around 150 mm^3.

Chain of HER2 (P04626 23-1255): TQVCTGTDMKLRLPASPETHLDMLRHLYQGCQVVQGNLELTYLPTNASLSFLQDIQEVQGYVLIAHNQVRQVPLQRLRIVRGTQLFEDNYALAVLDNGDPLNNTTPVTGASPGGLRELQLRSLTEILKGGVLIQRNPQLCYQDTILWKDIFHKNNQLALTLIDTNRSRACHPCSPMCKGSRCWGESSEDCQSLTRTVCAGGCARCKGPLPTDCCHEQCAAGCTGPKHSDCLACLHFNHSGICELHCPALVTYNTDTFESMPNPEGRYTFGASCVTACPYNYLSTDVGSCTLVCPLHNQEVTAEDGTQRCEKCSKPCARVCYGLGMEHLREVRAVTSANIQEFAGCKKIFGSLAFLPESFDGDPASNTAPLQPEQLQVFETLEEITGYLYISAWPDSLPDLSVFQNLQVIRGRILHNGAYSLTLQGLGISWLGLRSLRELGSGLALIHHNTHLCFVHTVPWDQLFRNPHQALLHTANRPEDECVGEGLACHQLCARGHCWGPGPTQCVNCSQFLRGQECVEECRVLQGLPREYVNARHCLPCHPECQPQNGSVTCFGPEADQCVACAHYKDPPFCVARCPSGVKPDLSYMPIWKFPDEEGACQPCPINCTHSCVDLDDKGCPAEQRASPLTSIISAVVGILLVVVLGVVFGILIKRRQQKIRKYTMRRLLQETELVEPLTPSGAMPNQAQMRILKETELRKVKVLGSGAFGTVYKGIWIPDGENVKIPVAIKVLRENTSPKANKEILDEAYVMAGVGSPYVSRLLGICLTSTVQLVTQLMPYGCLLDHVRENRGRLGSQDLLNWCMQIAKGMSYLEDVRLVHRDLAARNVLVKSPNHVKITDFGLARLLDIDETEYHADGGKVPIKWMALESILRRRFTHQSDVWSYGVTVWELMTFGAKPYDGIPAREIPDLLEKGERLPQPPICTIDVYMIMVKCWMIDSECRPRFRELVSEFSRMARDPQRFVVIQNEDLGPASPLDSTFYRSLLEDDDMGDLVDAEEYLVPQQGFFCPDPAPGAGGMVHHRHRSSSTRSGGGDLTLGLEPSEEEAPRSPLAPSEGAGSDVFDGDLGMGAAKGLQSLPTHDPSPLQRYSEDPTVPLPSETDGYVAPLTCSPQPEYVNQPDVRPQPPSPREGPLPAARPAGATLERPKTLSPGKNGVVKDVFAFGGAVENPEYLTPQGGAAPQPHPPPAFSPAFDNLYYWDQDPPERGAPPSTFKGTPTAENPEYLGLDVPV

## COc1cc(O[C@H]2CCN(C)CC2(F)F)c2c(Nc3ccc(Oc4ccn5ncnc5c4)c(C)c3)ncnc2c1 [DZD1516]
[1]; 50 mg, subject 1
  CSF conc: 4.89 nmol/L
  Free plasma conc: 5.35 nM
[1]; 50 mg, subject 2
  CSF conc: 10.2 nmol/L
  Free plasma conc: 6.28 nM
[1]; 100 mg, subject 3
  CSF conc: 39.3 nmol/L
  Free plasma conc: 13.4 nM
[1]; 100 mg, subject 4
  CSF conc: 15.5 nmol/L
  Free plasma conc: 4.95 nM
[1]; 100 mg, subject 5
  CSF conc: 12.7 nmol/L
  Free plasma conc: 4.84 nM
[1]; 200 mg, subject 6
  CSF conc: 18.3 nmol/L
  Free plasma conc: 13.9 nM
[1]; 250 mg, subject 7
  CSF conc: 27.9 nmol/L
  Free plasma conc: 24.0 nM
[1]; 250 mg, subject 8
  CSF conc: 54.2 nmol/L
  Free plasma conc: 17.4 nM
[1]; CSF (relative to unbound plasma), patients with CNS metastases, read-out: mean Kp,uu,CSF
  Kp uu: 2.1
[1]; CSF / free plasma, 100 mg, subject 4, read-out: Kp,uu,CSF
  Kp uu: 3.13
[1]; CSF / free plasma, 100 mg, subject 5, read-out: Kp,uu,CSF
  Kp uu: 2.63
[1]; CSF / free plasma, 200 mg, subject 6, read-out: Kp,uu,CSF
  Kp uu: 1.31
[1]; CSF / free plasma, 250 mg, subject 7, read-out: Kp,uu,CSF
  Kp uu: 1.16
[1]; CSF to free plasma, 50 mg, subject 1, read-out: Kp,uu,CSF
  Kp uu: 0.915
[1]; CSF to free plasma, 50 mg, subject 2, read-out: Kp,uu,CSF
  Kp uu: 1.62
[1]; CSF to free plasma, 100 mg, subject 3, read-out: Kp,uu,CSF
  Kp uu: 2.94
[1]; CSF to free plasma, 250 mg, subject 8, read-out: Kp,uu,CSF
  Kp uu: 3.13
[2]
  predicted human half-life: about 8 h
BT474C1 cells
  GI50: 20 nM
HER2
  IC50: 4.4 nM
[3]
  Kp uu: 0.57 to 0.87
[4]; 100 mg/kg or 150 mg/kg twice daily
  antitumor efficacy: tumor remission was achieved
[4]; monotherapy 50 mg/kg (data not shown)
  antitumor efficacy: tumor shrinkage or complete tumor remission
